# Measurements as given in ChEMBL document CHEMBL5724914, “Linking interpersonal differences in gut microbiota composition and drug biotransformation activity” (2024).
# Test: (§1) The drug is tested on Z-026 corresponding to metagenome with ENA study accession number: PRJEB37062 and ENA sample accession number: ERS12561825 for biotransformation under anaerobic condition. The drug concentrations were measured over 9 timepoints collected between 0 and 24 hours of incubation by liquid-chromatography-coupled mass spectrometry (LC–MS)
# Details: 2 µM
# Further: call rule not given here.
row,Bacterial Biotransformation,SMILES
1,Compound NOT metabolized,CCCc1nn(C)c2c(=O)[nH]c(-c3cc(S(=O)(=O)N4CCN(C)CC4)ccc3OCC)nc12.O=C(O)CC(O)(CC(=O)O)C(=O)O [SILDENAFIL CITRATE]

# Test: as §1, with “Z-012” for “Z-026”, “ERS12561812” for “ERS12561825”
# Details: 2 µM
row,Bacterial Biotransformation,SMILES
1,Compound NOT metabolized,CCCc1nn(C)c2c(=O)[nH]c(-c3cc(S(=O)(=O)N4CCN(C)CC4)ccc3OCC)nc12.O=C(O)CC(O)(CC(=O)O)C(=O)O [SILDENAFIL CITRATE]

# Test: (§2) The drug is tested on Z-011 corresponding to mouse gut metagenome with ENA study accession number: PRJEB37062 and ENA sample accession number: ERS12561811 for biotransformation under anaerobic condition. The drug concentrations were measured over 9 timepoints collected between 0 and 24 hours of incubation by liquid-chromatography-coupled mass spectrometry (LC–MS)
# Details: 2 µM
row,Bacterial Biotransformation,SMILES
1,Compound NOT metabolized,CCCc1nn(C)c2c(=O)[nH]c(-c3cc(S(=O)(=O)N4CCN(C)CC4)ccc3OCC)nc12.O=C(O)CC(O)(CC(=O)O)C(=O)O [SILDENAFIL CITRATE]

# Test: as §1, with “Z-010” for “Z-026”, “ERS12561810” for “ERS12561825”
# Details: 2 µM
row,Bacterial Biotransformation,SMILES
1,Compound NOT metabolized,CCCc1nn(C)c2c(=O)[nH]c(-c3cc(S(=O)(=O)N4CCN(C)CC4)ccc3OCC)nc12.O=C(O)CC(O)(CC(=O)O)C(=O)O [SILDENAFIL CITRATE]

# Test: as §2, with “Z-002” for “Z-011”, “rabbit” for “mouse”, “ERS12561802” for “ERS12561811”
# Details: 2 µM
row,Bacterial Biotransformation,SMILES
1,Compound NOT metabolized,CCCc1nn(C)c2c(=O)[nH]c(-c3cc(S(=O)(=O)N4CCN(C)CC4)ccc3OCC)nc12.O=C(O)CC(O)(CC(=O)O)C(=O)O [SILDENAFIL CITRATE]

# Test: as §2, with “WLS-240” for “Z-011”, “human” for “mouse”, “ERS12561773” for “ERS12561811”
# Details: 2 µM
row,Bacterial Biotransformation,SMILES
1,Compound metabolized,CCCc1nn(C)c2c(=O)[nH]c(-c3cc(S(=O)(=O)N4CCN(C)CC4)ccc3OCC)nc12.O=C(O)CC(O)(CC(=O)O)C(=O)O [SILDENAFIL CITRATE]

# Test: as §2, with “WLS-170” for “Z-011”, “human” for “mouse”, “ERS12561762” for “ERS12561811”
# Details: 2 µM
row,Bacterial Biotransformation,SMILES
1,Compound metabolized,CCCc1nn(C)c2c(=O)[nH]c(-c3cc(S(=O)(=O)N4CCN(C)CC4)ccc3OCC)nc12.O=C(O)CC(O)(CC(=O)O)C(=O)O [SILDENAFIL CITRATE]

# Test: as §2, with “WLS-098” for “Z-011”, “human” for “mouse”, “ERS12561754” for “ERS12561811”
# Details: 2 µM
row,Bacterial Biotransformation,SMILES
1,Compound NOT metabolized,CCCc1nn(C)c2c(=O)[nH]c(-c3cc(S(=O)(=O)N4CCN(C)CC4)ccc3OCC)nc12.O=C(O)CC(O)(CC(=O)O)C(=O)O [SILDENAFIL CITRATE]

# Test: as §2, with “WLS-039” for “Z-011”, “human” for “mouse”, “ERS12561746” for “ERS12561811”
# Details: 2 µM
row,Bacterial Biotransformation,SMILES
1,Compound NOT metabolized,CCCc1nn(C)c2c(=O)[nH]c(-c3cc(S(=O)(=O)N4CCN(C)CC4)ccc3OCC)nc12.O=C(O)CC(O)(CC(=O)O)C(=O)O [SILDENAFIL CITRATE]

# Test: as §2, with “WLS-038” for “Z-011”, “human” for “mouse”, “ERS12561745” for “ERS12561811”
# Details: 2 µM
row,Bacterial Biotransformation,SMILES
1,Compound NOT metabolized,CCCc1nn(C)c2c(=O)[nH]c(-c3cc(S(=O)(=O)N4CCN(C)CC4)ccc3OCC)nc12.O=C(O)CC(O)(CC(=O)O)C(=O)O [SILDENAFIL CITRATE]

# Test: as §2, with “WLS-027” for “Z-011”, “human” for “mouse”, “ERS12561744” for “ERS12561811”
# Details: 2 µM
row,Bacterial Biotransformation,SMILES
1,Compound NOT metabolized,CCCc1nn(C)c2c(=O)[nH]c(-c3cc(S(=O)(=O)N4CCN(C)CC4)ccc3OCC)nc12.O=C(O)CC(O)(CC(=O)O)C(=O)O [SILDENAFIL CITRATE]

# Test: as §2, with “WLS-010” for “Z-011”, “human” for “mouse”, “ERS12561743” for “ERS12561811”
# Details: 2 µM
row,Bacterial Biotransformation,SMILES
1,Compound NOT metabolized,CCCc1nn(C)c2c(=O)[nH]c(-c3cc(S(=O)(=O)N4CCN(C)CC4)ccc3OCC)nc12.O=C(O)CC(O)(CC(=O)O)C(=O)O [SILDENAFIL CITRATE]

# Test: as §2, with “WLS-007” for “Z-011”, “human” for “mouse”, “ERS12561742” for “ERS12561811”
# Details: 2 µM
row,Bacterial Biotransformation,SMILES
1,Compound NOT metabolized,CCCc1nn(C)c2c(=O)[nH]c(-c3cc(S(=O)(=O)N4CCN(C)CC4)ccc3OCC)nc12.O=C(O)CC(O)(CC(=O)O)C(=O)O [SILDENAFIL CITRATE]

# Details: human gut metagenome, 24 h, 2 µM
row,Bacterial Biotransformation,SMILES
1,Compound NOT metabolized,CCCc1nn(C)c2c(=O)[nH]c(-c3cc(S(=O)(=O)N4CCN(C)CC4)ccc3OCC)nc12.O=C(O)CC(O)(CC(=O)O)C(=O)O [SILDENAFIL CITRATE]

# Details: human gut metagenome, 24 h, 2 µM
# Remark: another data set of the same source
row,Bacterial Biotransformation,SMILES
1,Compound NOT metabolized,CCCc1nn(C)c2c(=O)[nH]c(-c3cc(S(=O)(=O)N4CCN(C)CC4)ccc3OCC)nc12.O=C(O)CC(O)(CC(=O)O)C(=O)O [SILDENAFIL CITRATE]

# Details: human gut metagenome, 24 h, 2 µM
# Remark: another data set of the same source
row,Bacterial Biotransformation,SMILES
1,Compound NOT metabolized,CCCc1nn(C)c2c(=O)[nH]c(-c3cc(S(=O)(=O)N4CCN(C)CC4)ccc3OCC)nc12.O=C(O)CC(O)(CC(=O)O)C(=O)O [SILDENAFIL CITRATE]

# Details: human gut metagenome, 24 h, 2 µM
# Remark: another data set of the same source
row,Bacterial Biotransformation,SMILES
1,Compound NOT metabolized,CCCc1nn(C)c2c(=O)[nH]c(-c3cc(S(=O)(=O)N4CCN(C)CC4)ccc3OCC)nc12.O=C(O)CC(O)(CC(=O)O)C(=O)O [SILDENAFIL CITRATE]

# Details: human gut metagenome, 24 h, 2 µM
# Remark: another data set of the same source
row,Bacterial Biotransformation,SMILES
1,Compound NOT metabolized,CCCc1nn(C)c2c(=O)[nH]c(-c3cc(S(=O)(=O)N4CCN(C)CC4)ccc3OCC)nc12.O=C(O)CC(O)(CC(=O)O)C(=O)O [SILDENAFIL CITRATE]

# Details: human gut metagenome, 24 h, 2 µM
# Remark: another data set of the same source
row,Bacterial Biotransformation,SMILES
1,Compound metabolized,CCCc1nn(C)c2c(=O)[nH]c(-c3cc(S(=O)(=O)N4CCN(C)CC4)ccc3OCC)nc12.O=C(O)CC(O)(CC(=O)O)C(=O)O [SILDENAFIL CITRATE]

# Details: human gut metagenome, 24 h, 2 µM
# Remark: another data set of the same source
row,Bacterial Biotransformation,SMILES
1,Compound NOT metabolized,CCCc1nn(C)c2c(=O)[nH]c(-c3cc(S(=O)(=O)N4CCN(C)CC4)ccc3OCC)nc12.O=C(O)CC(O)(CC(=O)O)C(=O)O [SILDENAFIL CITRATE]
